Test results: patent US20250313533A1, “QUINOLINE CARBOXYLIC ACID ESTER COMPOUND AND PREPARATION METHOD AND USE THEREOF” (priority 2019, published 2025)

Legend:
[1] = tested on: pathogenic bacteria causing bacterial angular leaf spot in cucumbers; assay: In vitro bactericidal activity, bacterial angular leaf spot in cucumbers; type: cell-based, pseudomonas; conditions: read-out: inhibitory rate; for inhibition at 1 ppm: dosage 1 ppm; for inhibition at 5 ppm: dosage 5 ppm
[2] = tested on: pathogenic bacteria causing bacterial wilt in tobacco; assay: whole plant or invertebrate; type: cell-based, ralstonia; conditions: read-out: inhibitory rate
[3] = tested on: pathogenic bacteria causing black shank in potatoes; assay: In vitro bactericidal activity, black shank in potatoes; type: cell-based; conditions: read-out: inhibitory rate; for inhibition at 1 ppm: dosage 1 ppm; for inhibition at 5 ppm: dosage 5 ppm
[4] = tested on: pathogenic bacteria causing stem rot in sweet potatoes; assay: In vitro bactericidal activity, stem rot in sweet potatoes; type: cell-based, dikia; conditions: read-out: inhibitory rate; for inhibition at 1 ppm: dosage 1 ppm; for inhibition at 5 ppm: dosage 5 ppm
[5] = tested on: pathogenic bacteria causing bacterial blight in rice; assay: whole plant or invertebrate; type: cell-based, xanthomonas; conditions: read-out: inhibitory rate
[6] = tested on: pathogenic bacteria causing fruit blotch in watermelons; assay: In vitro bactericidal activity, fruit blotch in watermelons; type: cell-based, acidovorax; conditions: read-out: inhibitory rate; for inhibition at 1 ppm: dosage 1 ppm; for inhibition at 5 ppm: dosage 5 ppm
[7] = tested on: pathogenic bacteria causing black rot in Chinese cabbages; assay: In vitro bactericidal activity, black rot in Chinese cabbages; type: cell-based, xanthomonas; conditions: Xanthomonas, read-out: inhibitory rate; for inhibition at 1 ppm: dosage 1 ppm; for inhibition at 5 ppm: dosage 5 ppm
[8] = tested on: pathogenic bacteria causing bacterial wilt in cassava; assay: organism not typed; type: cell-based; conditions: read-out: inhibitory rate
[9] = tested on: pathogenic bacteria causing fire blight in pears; assay: In vitro bactericidal activity, fire blight in pears; type: cell-based, erwinia; conditions: Erwinia, read-out: inhibitory rate; for inhibition at 1 ppm: dosage 1 ppm; for inhibition at 5 ppm: dosage 5 ppm
black shank in potatoes = assay: Living crops in vivo protective activity, potatoes (root irrigation); conditions: Solanum tuberosum, read-out: efficacy against black shank in potatoes; for pest or weed control at 5 ppm: dosage 5 ppm; for pest or weed control at 10 ppm: dosage 10 ppm
Method: Root irrigation was carried out on the potatoes for tests according to the designed concentration of the agents. The dosage for each plant was 200 mL and was kept consistent (also for the control). The black shank bacteria were inoculated on the second day after the application. The results were investigated according to the disease condition.

[10] = tested on: indoor potted cucumber seedlings; assay: Effect of improving growth and development of crops; type: in vivo; design: Rate of growth rate increase (%): concentration or dose not given beside the values; conditions: versus blank control; for Rate of chlorophyll content increase (%) / Rate of leaf area increase (%): 14 days after application; for Rate of growth rate increase (%): plant height 14 days after application; for Rate of leaf area increase (%): second leaf
Method: Taking indoor potted cucumber seedlings as an example, the influence of the compound disclosed herein on growth rate of plant height, chlorophyll content, leaf area, etc. of crops was mainly evaluated.
The plant heights of plants before application and 14 days after the application were measured.
The growth rates were calculated according to formula (1)
The rates of the growth rate increase (%) were calculated according to formula (2)
The longitudinal and transverse diameters (i.e., leaf length and leaf width, respectively, wherein the leaf length is the distance from the base to the tip of a leaf, and leaf width is the measured value of the upper shoulder width of the leaf) of the second leaf of plants before application and 14 days after the application were measured.
The leaf areas were calculated according to formula (3)
The leaf area increases were calculated according to formula (4)
The rates of the leaf area increases were calculated according to formula (5)
The chlorophyll contents of leaves were measured by using a chlorophyll measuring instrument (model: SPAD-520 Plus).
The chlorophyll content increases were calculated according to formula (6)
The rates of the chlorophyll content increases were calculated according to formula (7)

cucumber seedlings = assay: Safety for plant growth after application; type: in vivo; conditions: dosage 200 ppm
Procedure, shortened: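 Compound applied to indoor cucumber seedlings in pots. Growth then scored: height increase rate, leaf chlorophyll, leaf area.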

[11] = tested on: bacterial wilt in tobacco; assay: whole plant or invertebrate; conditions: Nicotiana tabacum, read-out: efficacy against bacterial wilt in tobacco
[12] = tested on: stem rot in sweet potatoes; assay: whole plant or invertebrate; conditions: read-out: efficacy against stem rot in sweet potatoes
bacterial blight in rice = assay: whole plant or invertebrate; conditions: Oryza sativa, read-out: efficacy against bacterial blight in rice
[13] = tested on: fruit blotch in watermelons; assay: whole plant or invertebrate; conditions: read-out: efficacy against fruit blotch in watermelons
[14] = tested on: soft rot in Chinese cabbages; assay: whole plant or invertebrate; conditions: 48 h, read-out: efficacy against soft rot in Chinese cabbages

COCCOC(=O)c1cn(C2CC2)c2cc(N(C)C)c(F)cc2c1=O [Compound 414]
inhibition at 1 ppm [1]: ≥ 90%
inhibition at 5 ppm [1]: ≥ 90%
inhibition at 1 ppm [2]: ≥ 90%
inhibition at 5 ppm [2]: ≥ 90%
inhibition at 1 ppm [3]: ≥ 90%
inhibition at 5 ppm [3]: ≥ 90%
inhibition at 1 ppm [4]: ≥ 90%
inhibition at 5 ppm [4]: ≥ 90%
inhibition at 1 ppm [5]: ≥ 90%
inhibition at 5 ppm [5]: ≥ 90%
inhibition at 1 ppm [6]: ≥ 90%
inhibition at 5 ppm [6]: ≥ 90%
inhibition at 1 ppm [7]: ≥ 90%
inhibition at 5 ppm [7]: ≥ 90%
inhibition at 1 ppm [8]: ≥ 90%
inhibition at 5 ppm [8]: ≥ 90%
inhibition at 1 ppm [9]: ≥ 90%
inhibition at 5 ppm [9]: ≥ 90%
pest or weed control at 5 ppm (black shank in potatoes): ≥ 90%
pest or weed control at 10 ppm (black shank in potatoes): ≥ 90%
Rate of chlorophyll content increase (%) [10]: 15%
Rate of growth rate increase (%) [10]: 12%
Rate of leaf area increase (%) [10]: 18%
safety for plant growth (discoloration, necrosis, wilt, malformation) (cucumber seedlings): safe for plant growth
pest or weed control at 5 ppm [11]: ≥ 90%
pest or weed control at 10 ppm [11]: ≥ 90%
pest or weed control at 5 ppm [12]: ≥ 90%
pest or weed control at 10 ppm [12]: ≥ 90%
pest or weed control at 5 ppm (bacterial blight in rice): ≥ 90%
pest or weed control at 10 ppm (bacterial blight in rice): ≥ 90%
pest or weed control at 5 ppm [13]: ≥ 90%
pest or weed control at 10 ppm [13]: ≥ 90%
pest or weed control at 5 ppm [14]: ≥ 90%
pest or weed control at 10 ppm [14]: ≥ 90%

CNc1cc2c(cc1F)c(=O)c(C(=O)OCCOC)cn2C1CC1 [Compound 401]
inhibition at 1 ppm [1]: ≥ 90%
inhibition at 5 ppm [1]: ≥ 90%
inhibition at 1 ppm [2]: ≥ 90%
inhibition at 5 ppm [2]: ≥ 90%
inhibition at 1 ppm [3]: ≥ 90%
inhibition at 5 ppm [3]: ≥ 90%
inhibition at 1 ppm [4]: ≥ 90%
inhibition at 5 ppm [4]: ≥ 90%
inhibition at 1 ppm [5]: ≥ 90%
inhibition at 5 ppm [5]: ≥ 90%
inhibition at 1 ppm [6]: ≥ 90%
inhibition at 5 ppm [6]: ≥ 90%
inhibition at 1 ppm [7]: ≥ 90%
inhibition at 5 ppm [7]: ≥ 90%
inhibition at 1 ppm [8]: ≥ 90%
inhibition at 5 ppm [8]: ≥ 90%
inhibition at 1 ppm [9]: ≥ 90%
inhibition at 5 ppm [9]: ≥ 90%
pest or weed control at 5 ppm (black shank in potatoes): ≥ 90%
pest or weed control at 10 ppm (black shank in potatoes): ≥ 90%
Rate of chlorophyll content increase (%) [10]: 13%
Rate of growth rate increase (%) [10]: 10%
Rate of leaf area increase (%) [10]: 10%
safety for plant growth (discoloration, necrosis, wilt, malformation) (cucumber seedlings): safe for plant growth
pest or weed control at 5 ppm [11]: ≥ 90%
pest or weed control at 10 ppm [11]: ≥ 90%
pest or weed control at 5 ppm [12]: ≥ 90%
pest or weed control at 10 ppm [12]: ≥ 90%
pest or weed control at 5 ppm (bacterial blight in rice): ≥ 90%
pest or weed control at 10 ppm (bacterial blight in rice): ≥ 90%
pest or weed control at 5 ppm [13]: ≥ 90%
pest or weed control at 10 ppm [13]: ≥ 90%
pest or weed control at 5 ppm [14]: ≥ 90%
pest or weed control at 10 ppm [14]: ≥ 90%
